In EP0327365B1, “Improvements in or relating to modified haptens useful as imaging and therapeutic agents” (HYBRITECH INCORPORATED, priority 1988, dated 1989):

Experiments:
T-380 tumors [1] = assay: Hapten biodistribution, premix protocol with bifunctional antibody ECH037.2; type: in vivo, nude mice; design: TOTAL RECOV: unit not given here; conditions: for % DOSE PER GRAM, KIDNEY / % DOSE PER GRAM, LIVER / % DOSE PER GRAM, TUMOR / FECES / URINE / % DOSE PER GRAM, BLOOD / TUMOR/BLOOD / TOTAL RECOV: premix with 20 µg ECH037.2; for % DOSE PER GRAM, BLOOD: 111In-labeled hapten i.v.; for TUMOR/BLOOD: ratio; for Percent Injected Dose in Feces: premix protocol (Table VI); for %Dose per Gram, Blood / %Dose per Gram, Tumor: premix with 20 µg ECH037.2 (Table VIII)
Protocol: (§1) Two protocols were used for examining the biodistribution of the derivatized haptens in the presence of the bifunctional antibody ECH037.2. In a premix protocol, ECH037.2 and the derivatized hapten were combined prior to injection in the animals. In the prelocalization protocol, ECH037.2 was injected into the animals, and the antibody was allowed to prelocalize for 24 hours prior to injection of the radiolabeled hapten.
(§2) Biodistribution studies were performed in nude mice carrying subcutaneous implants of the human colon carcinoma cell line T-380 which expresses the carcinoembryonic antigen (CEA) recognized by ECH037.2. Briefly, Balb/C Nu/Nu mice were injected subcutaneously with a minced preparation of T-380 tumor implants and maintained for approximately two weeks, or until the tumor implant had grown to a size of approximately 0.5 grams as described by Hagan, P.L., et al. J. Nuc. Med., 26 1418-1423 (1985). Mice were kept in a sterile environment to prevent complications due to bacterial or viral infections. Biodistributions were performed as described by Halpern, S., et al., Cancer Res. 43, 5347-5355 (1983). Briefly, the radiolabeled haptens were injected intravenously in […], and the pharmacokinetics were evaluated at several time points post-injection. At these times, mice were sacrificed and weighed. Organs were removed, their weight recorded, and each organ was then washed in sterile PBS, pH 7.0, and fixed in formalin solution. Samples of blood, urine and feces also were collected and their weight similarly recorded. The organs, or a portion thereof, were transferred to clean tubes and their radioactive content was determined in a well-type gamma-counter.
(§3) Relative radioactive content of each organ was expressed as a percentage of injected dose per organ.
To indium-label the haptens of the invention 10 »l of 0.1 mM ligand was combined with X »l of ¹¹¹InCl₃ (in 50 mM HCl) and (x+10) »l of 0.26 M ammonium citrate, pH 6.0. X is calculated by the following equation: X = (200 »Ci)/(A »Ci/»l) [formula] where A is the specific activity of the ¹¹¹In.
The labeling was done in an acid-washed microfuge tube. After combining all of the components above, the solution was vortexed and allowed to stand at room temperature for 15 minutes.
Incorporation of the ¹¹¹In into the chelating agent was determined by TLC on silica in a methanol/aqueous ammonium acetate solvent system as described by Meares, et al. (Anal. Biochem., 142, 68-75 (1984)). Greater than 95% incorporation of the radioactivity into the chelate was required for the sample to be submitted for a biodistribution assay.
Prior to injection the ¹¹¹In-labeled hapten was diluted into freshly prepared isotonic sodium bicarbonate (1.39% w/v) containing 1 mg/ml normal human serum albumin (Buminate, 25% solution, Travenol Laboratories, Glendale, California) to which the bifunctional antibody had been added. The final composition of the solution was 0.2 mg/ml ECH037.2, 0.5 »M chelate, 0.1 »Ci/»l ¹¹¹In, all in a volume of 2.0 ml. For the biodistribution studies, 100 »l of the solution was injected into the tail vein of each animal.

T-380 tumors [2] = assay: Hapten biodistribution, prelocalization protocol with bifunctional antibody ECH037.2; type: in vivo, nude mice; conditions: in words
Protocol: as §1, §2, §3
To indium-label the chelating agents for the prelocalization protocol, 5 »l of 0.1 mM chelating agent was combined with X »l of ¹¹¹InCl₃ (in 50 mM HCl) and (x+5) »l of 0.26 M ammonium citrate, pH 6.0. X was calculated by the following equation: X = 200 »Ci/A »Ci/»l [formula] where A is the specific activity of the ¹¹¹InCl₃ solution. The solution was vortexed and allowed to stand at room temperature for 15 minutes, after which incorporation of ¹¹¹In label into the chelating agent was determined as described for the premix protocol. If at least 95 percent of the ¹¹¹In was bound by the chelating agent, the material was then diluted to a final volume of 2 ml with isotonic (1.39 percent, w/v) sodium bicarbonate containing 1 mg/ml normal human serum albumin. This material (100 »l) then was injected into each tail vein of mice which had each been injected 24 hours earlier with 5 »g of ECH037.2 in 100 »l isotonic sodium bicarbonate containing 1 mg/ml normal human serum albumin.

[3] = system: monoclonal antibody CHA255; assay: Determination of hapten-antibody dissociation rates; type: binding, BALB/c mice; conditions: 22°C; indium complex of hapten from CHA255 after 100 fold excess of indium-115 loaded hapten
Protocol: Hapten-antibody dissociation rates were determined using monoclonal antibody CHA255, prepared as described in Example 2A, by measuring the quantity of ¹¹¹In³⁺ chelate released from the antibody hapten complex as a function of time after addition of a 100 fold excess (over antibody binding sites) of indium-115 loaded hapten. Thus, for each hapten, a 700 »l solution was prepared containing: antibody at a concentration of 160 nM; indium loaded hapten, trace labeled with ¹¹¹In (total concentration = 160 nM); normal human serum albumin at a total concentration of 1.5 mg/mL; and isotonic phosphate buffered saline, (10 mM PO₄²⁻, 150 mM NaCl, pH 7.2). Indium-115 loaded hapten was added to a final Concentration of […]. Reactions were stirred by placing the sample containers ir a rack mounted on a vortexer head.
At various times after addition of the excess hapten, […] portions of the reaction solutions were transferred to Centrifree tubes (Amicon Corperation, Danvers, Massachusetts) and centrifuged at 1500xg for eight to ten minutes. The reaction time was taken to be the time between addition of the excess hapten and the time the centrifuge reached the desired velocity. Six timepoints, each in duplicate, were obtained over a range of about two reaction half-lives for each rate constant determination. A 200 »l portion from each centrifuged and uncentrifuged solution was then counted for ¹¹¹In. The relative concentration of free hapten was taken to be the ratio of counts in the centrifuged solution to the uncentrifuged solution at each timepoint. Times were recorded to the nearest tenth of a minute.
Room temperature rate constants were measured without the aid of a constant temperature bath. The ambient temperature remained at 22°±1 C.
Rate constants and standard deviations were obtained from a plot of the logarithm of relative complex concentration vs. time. Data were analyzed using the linear regression module of the RS/1 Program (BBN Software Products Corporation, Cambridge, Massachusetts).
Control samples were included in each experiment to determine: A) that the initial condition of 100% of labeled hapten bound to antibody was met, and B) that in the absence of antibody, 100% of counts were able to penetrate the Centrifree membrane. […]

## O=C(O)CN(CC(=O)O)CC(Cc1ccc(NC(=S)NCCO)cc1)N(CC(=O)O)CC(=O)O (stereo not drawn) [EOTUBE]
T-380 tumors [1]; 24 hours
  % DOSE PER GRAM, KIDNEY: 2.8 % DOSE PER GRAM
  % DOSE PER GRAM, LIVER: 3.8 % DOSE PER GRAM
  % DOSE PER GRAM, TUMOR: 12.5 % DOSE PER GRAM
  FECES: 6.2% of total injected dose
  URINE: 25.9% of total injected dose
  % DOSE PER GRAM, BLOOD: 9.3 % DOSE PER GRAM
  TUMOR/BLOOD: 1.34
T-380 tumors [1]; 24 hrs.
  Percent Injected Dose in Feces: 6.2 Percent Injected Dose
T-380 tumors [1]; 48 hours
  % DOSE PER GRAM, KIDNEY: 1.4 % DOSE PER GRAM
  % DOSE PER GRAM, LIVER: 3.1 % DOSE PER GRAM
  % DOSE PER GRAM, TUMOR: 14.5 % DOSE PER GRAM
  FECES: 7.9% of total injected dose
  URINE: 49.3% of total injected dose
  % DOSE PER GRAM, BLOOD: 4.7 % DOSE PER GRAM
  TUMOR/BLOOD: 3.09
T-380 tumors [1]; 48 hrs.
  Percent Injected Dose in Feces: 7.9 Percent Injected Dose
T-380 tumors [1]; premix protocol, Figure 1 (24 and 48 hours), in words
  tumor uptake: outstanding tumor uptake
T-380 tumors [1]; premix protocol, Figure 2 (24 and 48 hours), in words
  tumor/blood ratios: good tumor/blood ratios
T-380 tumors [2]; 24 hours (Figure 7)
  tumor/organ ratios: high tumor/organ ratios
T-380 tumors [2]; all time points (Figures 3-5)
  tumor uptake: high tumor uptake at all time points

## NCCNC(=S)Nc1ccc(CC(CN(CC(=O)O)CC(=O)O)N(CC(=O)O)CC(=O)O)cc1 (stereo not drawn) [NUBE]
T-380 tumors [1]; 24 hours
  % DOSE PER GRAM, KIDNEY: 4.0 % DOSE PER GRAM
  % DOSE PER GRAM, LIVER: 3.1 % DOSE PER GRAM
  % DOSE PER GRAM, TUMOR: 8.5 % DOSE PER GRAM
  FECES: 5.9% of total injected dose
  TOTAL RECOV: 66.3
  URINE: 42.5% of total injected dose
  % DOSE PER GRAM, BLOOD: 5.9 % DOSE PER GRAM
  TUMOR/BLOOD: 1.44
T-380 tumors [1]; 24 hrs. post-injection
  %Dose per Gram, Blood: 5.8 %Dose per Gram
  %Dose per Gram, Tumor: 11.7 %Dose per Gram
T-380 tumors [1]; 24 hrs.
  Percent Injected Dose in Feces: 5.9 Percent Injected Dose
T-380 tumors [1]; 48 hours
  % DOSE PER GRAM, KIDNEY: 2.5 % DOSE PER GRAM
  % DOSE PER GRAM, LIVER: 1.9 % DOSE PER GRAM
  % DOSE PER GRAM, TUMOR: 8.1 % DOSE PER GRAM
  FECES: 12.9% of total injected dose
  TOTAL RECOV: 74.1
  URINE: 52.6% of total injected dose
  % DOSE PER GRAM, BLOOD: 2.0 % DOSE PER GRAM
  TUMOR/BLOOD: 4.0
T-380 tumors [1]; 48 hrs. post-injection
  %Dose per Gram, Blood: 3.3 %Dose per Gram
  %Dose per Gram, Tumor: 12.2 %Dose per Gram
T-380 tumors [1]; 48 hrs.
  Percent Injected Dose in Feces: 12.9 Percent Injected Dose
T-380 tumors [1]; 72 hrs. post-injection
  %Dose per Gram, Blood: 0.7 %Dose per Gram
  %Dose per Gram, Tumor: 10.5 %Dose per Gram
[3]
  t1/2, Dissociation Half-Lives: 45.6 min
